# Ends that are not written are not given here.
# Key:
# [1] = test system: EphA2; assay: EphA2 tyrosine phosphorylation in HUVECs (immunoprecipitation/4G10 western blot), Src dependence; type: cell-based, human
# Procedure: Confluent HUVECs were pretreated with either DMSO or PP2 for […] and then stimulated with 1 U/ml thrombin or […] Ephrin A1-FC. EphA2 was immunoprecipitated and tyrosine phosphorylation was detected by immunoblot using an anti-phophotyrosine antibody (top panel). The blot was stripped and reblotted with the EphA2 antibody for loading (bottom panel). Representative data from 3 independent experiments are shown.
# Methods: Mouse EphrinA1 in a form of FC fusion was purchased from R and D Systems. Pharmacological agents PP2 was used to examine the role of Src in EphA2 phosphorylation. Confluent HUVECs were pretreated with PP2 (2 μM) or DMSO for 1 hour, followed by a 10-min treatment with sodium orthovandate (1 mM). Cells were then stimulated for 30 mins with either 1 U/ml thrombin or 250 ng/ml […]. HUVECs were lysed in RIPA buffer. Clarified lysates were immunoprecipitated with 2 μg of a polyclonal anti human EphA2 antibody (Santa Cruz) and Protein A/G Plus. Tyrosine phosphorylation and EphA2 were detected using the 4G10 and the EphA2 antibody (Santa Cruz), respectively.
# [2] = test system: Tie-1-induced inflammation in HUVECs; assay: p38 inhibition study, real-time PCR in HUVECs infected with Tie-1 adenovirus; type: cell-based, human; settings: 48 hours post infection
# Excerpt: FIG. 28 is a graph showing that Tie-1 induced endothelial inflammation is p38 dependent.
# Adenovirus construction: For adenovirus production, we chose the AdEasy adenoviral expression system due to its ease of use and ability to generate high titer virus. Coding sequence of mouse Tie-1 excluding the endogenous leader sequence was amplified from cDNA prepared from mouse lung tissue. The following expression cassette was constructed: IgK leader sequence, a Flag epitope tag sequence, and the coding region of mouse Tie-1. This cassette was subcloned into the shuttle vector pAdTrack, which contains two CMV promoters to express the gene of interest and the green fluorescent protein (GFP) independently. After homologous recombination in the E. coli strain BJ5183 (Stratagene), the recombined pAdeasy DNA (PacI-cut) was used to transfect 293A cells (Invitrogen). After several rounds of amplification, the virus was purified using the Ad-Pure Adenoviral Purification Kit (BioVintage) and tittered using 293A as the host. Immediately prior to use, the virus was desalted and buffer-exchanged into endothelial growth medium using a spin column (Pierce). Adenoviral infection: Human umbilical vein endothelial cells (HUVECs) and human aortic endothelial cells (HAECs) were purchased from Cambrex and maintained as recommended by the manufacturer. To overexpress Tie-1, 200,000 endothelial cells were plated in one well of a […]. After overnight incubation, adenovirus harboring the Tie-1 expression cassette was added to the endothelial cells at MOI of 10:1. An “empty virus” expressing only GFP was used as a control. Seventeen hours later, medium was replaced with fresh medium. Cells were maintained and processed at the desired time points for the experiments described below. […] Lysates were immunoprecipitated with an anti-Tiel antibody (Santa Cruz, SC-342). Western blotting with anti phosphotyrosine antibody (4G10, Upstate) was used to determine the phosphorylation status of Tie-1. The membrane was stripped and reblotted with the anti-Tiel antibody. A portion of the lysates was immunoprecipitated with 4G10. Tyrosine phosphorylation of Tie-1 was confirmed by western blotting with the anti-Tiel antibody using these 4G10 immunoprecipitates. Antibody array experiment: HUVECs were infected as described. Forty-eight hours later, supernatants from Tie-1 expressing or GFP expressing cells were collected. After brief centrifugation to remove cell debris, the supernatants were spun through a 0.22-μm cellulose acetate filter (Spin-X, Costar). Cytokine and chemokine contents in the conditioned media were screened using the RayBio Human Inflammation Antibody Array 3.1(RayBiotech). Real-time polymerase chain reactions (PCR)—Total RNAs from endothelial cells were isolated by the RNAeasy Mini Kit (Qiagen) and used as templates in oligo-dT primed reverse transcription using the Superscript III reverse transcriptase (Invitrogen). Real-time PCRs were performed using the QuantiTect Probe PCR Kit (Qiagen) with the 7500 Real Time PCR System (Applied Biosystems). Gene of interest and GAPDH were multiplexed for normalization as described (Dupuy et al., Exp. Cell Res. 185: 363-372., (1989)). The following real time PCR probes were purchased from Applied Biosystems and used in this study: CCL2 5′-[…]-3′(SEQ ID NO: 27); VCAM-1: 5′-[…]-3 (SEQ ID NO: 28)′; ICAM: 5′-[…]-3′(SEQ ID NO: 29); CXCL10: 5′-[…]-3′(SEQ ID NO: 30); E-selectin: 5′-[…]-3′(SEQ ID NO: 31); IL-6: 5′-[…]-3′ (SEQ ID NO: 32). ELISA—HUVECs were infected as described above. Supernatants were collected from Tie-1 expressing or GFP expressing cells 70 hours post infection. The ELISA kit for human IL-6 was purchased from R and D Systems. Western blots—Endothelial cell lysates were prepared in denaturing SDS-PAGE loading buffer, sonicated, heated at 80° C. for 5 mins, and fractionated on SDS-PAGE. […]
# [3] = test system: EphA2; assay: EphA2 tyrosine phosphorylation in HUVECs stimulated with PAR agonistic peptides; type: cell-based, human; settings: peptides at 20 μM as stimulants
# Procedure: FIG. 37 is an immunoblot showing PAR-1 activates EphA2. Confluent HUVECs were stimulated with PAR agonistic peptides TFLLR-NH2 (PAR-1) (SEQ ID NO: 11), RLLFT-NH2 (negative control for PAR-1) (SEQ ID NO: 12), SLIGKV-NH2 (PAR-2) (SEQ ID NO: 13), GYPGKF-NH2 (PAR-4) (SEQ ID NO: 14), and thrombin. Tyrosine phosphorylation of EphA2 was determined by western blot.
# Methods: HUVECs were prepared and stimulated as described in above except that the following peptides at 20 μM were used as stimulants: TFLLR-NH2 (PAR-1; SEQ ID NO: 11), RLLFT-NH2 (negative control for PAR-1; SEQ ID NO: 12), SLIGKV-NH2 (PAR-2; SEQ ID NO: 13), and GYPGKF-NH2 (PAR-4; SEQ ID NO: 14).
# [4] = target: T1, thrombin (Homo sapiens, UniProt P00734); assay: In vitro thrombin activation colorimetric assay, HUVECs expressing Tie-1 endodomain with human plasma and chromogenic thrombin substrate; type: cell-based; settings: hirudin 100 U/ml; HUVECs infected with Tie-1 endodomain adenovirus; absorbance at 405 nm
# T1 construct: tissue Calbiochem 527420; host or cells: human plasma added to HUVEC monolayers
# Procedure: HUVECs were either expressing GFP or Tie-1 endodomain. Whole human plasma supplemented with an excess chromogenic thrombin substrate (sarcosine-Pro-Arg-pNA) (Duncan, Bowie et al., Clin Chem 31: 853-855, (1985)) was added to HUVECs. Cleavage carboxyl-terminal to the arginine residue by thrombin releases […], which can be monitored by absorbance at 405 nm.
# Methods: HUVECs were grown to confluency in a 12-well plate. Cells were either uninfected, infected with control GFP adenovirus, or Tie-1 endodomain adenovirus. Next day, medium was changed to fresh full EGM2-MV. 72-hr post infection, cells were washed with EBM2 basal medium (without phenol red), and 0.5 ml of assay medium [EBM2 basal medium (without phenol red)/10% human plasma (Calbiochem 527420)/200 μM chromogenic thrombin substrate (Calbiochem 539518)] was added. Hirudin (Calbiochem 377853, 100 U/ml) was added to one set of cells infected with Tie-1 endodomain. The assay was quenched by the addition of aprotinin (Sigma A1154, 5.6 U/ml). Absorbance at 405 nm was measured using a spectrophotometer and used as an indicator of thrombin activity. […]
# Results: We used a colorimetric assay to determine whether expression of Tie-1 endodomain could induce activation of thrombin in vitro. […] Thrombin activation was detected by an increase in absorbance of the cleaved thrombin substrate ([…]) at 405 nm. […]
# [5] = test system: stenosis after balloon angioplasty; settings: rabbit, rat, and pig models; cited from earlier work
# [6] = test system: ICAM-1; assay: Thrombin-induced ICAM-1 upregulation in HUVECs, western blot; type: cell-based, human
# Excerpt: FIGS. 33A-33B show thrombin induction of ICAM-1 upregulation in HUVECs is dependent on EphA2. […] Representative data from 3 experiments are shown. FIG. 33B is a graph showing densitometric quantification of the results in […] normalized for fold increase in ICAM-1 expression. Results were reported as fold-increase in ICAM-1 expression relative to unstimulated controls. Data are mean±s.d. of three experiments; * p<0.002.
# FIGS. 34A-34B show overexpression of mouse EphA2 rescues thrombin-induced ICAM-1 upregulation in HUVECs with endogenous EphA2 knocked down. […] The cells were treated with human EphA2 specific siRNA as indicated and ICAM-1 upregulation was induced using 1 U/ml thrombin for 6 hours (T). Representative data from 4 experiments are shown. […] “−” and “+” represent without or with thrombin stimulation (1 U/ml, 6 hr). Representative results from two experiments are shown.
# Methods: Two validated Stealth siRNA duplexes specific to human EphA2 and a negative control duplexes were purchased from Invitrogen (EphA2 siRNA, catalog number: 12938-022, sequence: 5′-gca agg aag ugg uac ugc ugg acu u-3′ (siRNA #1, SEQ NO ID 33) and control siRNA, catalog number 12935-300, sequence: 5-ggg acc uga ugc aga aca uca uga a-3 (siRNA #2, SEQ NO ID 34)). […] ICAM-1 protein expression were detected by western blots using an anti ICAM-1 antibodies. […]
molecule,measurement,setting,value
CC(C)(C)n1nc(-c2ccc(Cl)cc2)c2c(N)ncnc21 [PP2],"tyrosine phosphorylation of EphA2 by EphrinA1, sensitivity to PP2","[1]; PP2 2 μM 1 hour, 250 ng/ml EphrinA1-FC 30 mins",insensitive
same,thrombin-induced EphA2 tyrosine phosphorylation,"[1]; PP2 2 μM 1 hour, 1 U/ml thrombin 30 mins",completely abrogated
C[S+]([O-])c1ccc(-c2nc(-c3ccncc3)c(-c3ccc(F)cc3)[nH]2)cc1 (centres unmarked) [SB-203580],Tie-1-induced CCL2 upregulation,[2],Significant inhibition
same,Tie-1-induced ICAM-1 upregulation,[2],Significant inhibition
same,Tie-1-induced upregulation of E-selectin mRNA,[2],almost completely blocked
same,Tie-1-induced upregulation of IL-6 mRNA,[2],almost completely blocked
same,Tie-1-induced upregulation of IP-10 mRNA,[2],almost completely blocked
same,Tie-1-induced upregulation of VCAM-1 mRNA,[2],almost completely blocked
GYPGKF-NH2 [PAR-4 specific agonist],EphA2 tyrosine phosphorylation (transactivation) in HUVECs,[3],failed to induce
RLLFT-NH2,EphA2 tyrosine phosphorylation (transactivation) in HUVECs,[3],failed to induce
SLIGKV-NH2 [PAR-2 specific agonist],EphA2 tyrosine phosphorylation (transactivation) in HUVECs,[3],failed to induce
TFLLR-NH2 [PAR-1 specific agonistic peptide],EphA2 tyrosine phosphorylation (transactivation) in HUVECs,[3],recapitulated EphA2 transactivation
hirudin,cleavage of the chromogenic thrombin substrate,[4],completely blocked
same,development of stenosis after balloon angioplasty,[5],reduces
soluble EphA2: soluble EphA2 added in excess during thrombin stimulation,"ICAM-1 expression induced by thrombin, block by co-incubation","[6]; soluble EphA2 at concentrations up to 1 μg/ml, thrombin 1 U/ml, 6 hr",failed to block
"EphrinA1-FC: Mouse EphrinA1 in a form of FC fusion, R and D Systems (protein, left off: a dimerising Fc or GST, Mouse EphrinA1 in a form of FC fusion, R and D Systems) DRHIVFWNSSNPKFREEDYTVHVQLNDYLDIICPHYEDDSVADAAMERYTLYMVEHQEYVACQPQSKDQVRWNCNRPSAKHGPEKLSEKFQRFTPFILGKEFKEGHSYYYISKPIYHQESQCLKLKVTVNGKITHNPQAHVNPQEKRLQADDPEVQVLHSIGYS",stimulation of ICAM-1 expression,"[6]; EphrinA1-FC up to 10 μg/ml, no thrombin",did not stimulate
same,activation of EphA2 in endothelial cells,"[1]; FC-fusion protein, 250 ng/ml, 30 mins",induced significant activation

# Reference: patent US20130273057A1, “METHODS AND COMPOSITIONS FOR THE TREATMENT AND DIAGNOSIS OF VASCULAR INFLAMMATORY DISORDERS OR ENDOTHELIAL CELL DISORDERS” (Beth Israel Deaconess Medical Center, Inc., priority 2007, published 2013)
